Read-outs that look alike come from different tables or passages of the source.
Legend:
mTOR (human) = mTOR (human) (Homo sapiens (Human), UniProt P42345); assay: mTOR (human) kinase assay, [γ-33P-ATP] filter assay; assay type: biochemical; details: for ratio IC50 (ATM) : IC50 (mTOR), selectivity with respect to mTOR: as printed:
Procedure: Furthermore, the effect, in particular inhibition, of other kinases and thus the selectivity of the compounds according to the invention can be determined with the aid of the following assay:
mTOR (human) was incubated with 50 mM HEPES pH 7.5, 1 mM EGTA, 0.01% Tween 20, 2 mg/ml of the substrate, 3 mM MnCl2 and [γ-^33P-ATP] (specific activity approximately 500 cpm/pmol, concentration as necessary). The reaction was initiated by addition of MgATP solution. After incubation at room temperature for 40 minutes, the reaction was stopped by addition of 3% phosphoric acid. 10 μl of the reaction solution were then transferred dropwise onto a P30 filtermat and washed three times for 5 min in 75 mM phosphoric acid and once in methanol, dried and evaluated by means of liquid scintillation counting.

[1] = tested on: phosphorylation of CHK2 (phospho-Thr68) in HCT116 cells; assay: Cellular pCHK2 assay: bleomycin-induced phosphorylation of CHK2 (phospho-Thr68), immunofluorescence high-content analysis; assay type: cell-based, human; details: Homo sapiens, HCT-116, 4 h, read-out: IC50 (pCHK2)
From the text: For the identification of substances which inhibit the phosphorylation of the protein kinase CHK2 at the amino acid threonine 68, an immunofluorescence-based “high content” analysis assay was used in HCT116 cells.
In vitro cell-based immunofluorescence assay for the identification of inhibitors of bleomycin-induced phosphorylation of CHK2 (phospho-Thr68) in the human colon carcinoma cell line HCT116:
HCT116 cells are sown out in a defined cell density in 384-well plates in culture medium (DMEM high glucose, 2 mM GlutaMax, 1 mM Na pyruvate, 10% FCS) and incubated overnight at 37° C. and 10% of CO2. On the following day, the test substances are added in a defined concentration range (1 nM to 30 μM) in combination with 10 μM bleomycin, where the concentration of the solvent DMSO is kept constant at 0.5%. […] Parallel staining of DNA with propidium iodide enables determination of the cell count. The pCHK2 signal is detected using a high-content imager (Molecular Devices IMX Ultra) and automatic image analysis using the MetaXpress software belonging to the instrument. The number of cell nuclei which have a pCHK2 signal above a defined background is determined.

PI3K (p120γ) (human) = PI3K (p120γ) (human) (Homo sapiens (Human), UniProt P48736); assay: PI3K (p120γ) (human), non-radioactive assay (HTRF); assay type: biochemical; details: for IC50: read-out: IC50 (PI3Kgamma); for ratio IC50 (ATM) vs PI3Kgamma, selectivity with respect to PI3Kgamma: as printed:
Procedure: PI3K (p120γ) (Human), Non-radioactive Assay
(§1) PI3K (p120γ) (human) was incubated in an assay buffer comprising 10 μM phosphati-dylinositol 4,5-bisphosphate and MgATP (concentration as necessary). The reaction was initiated by addition of MgATP solution. After an incubation time of 30 min at room temperature, the reaction was stopped by addition of a solution consisting of EDTA and biotinylated phosphatidylinositol 3,4,5-trisphosphate. Finally, the detection buffer, consisting of a europium-labelled anti-GST monoclonal antibody, a GST-labelled GRP1 PH domain and streptavidin allophycocyanin, was added. The plate was read out via homogeneous time-resolved fluorescence (HTRF) and the corresponding signals were evaluated via the formula HTRF=10000×(Em665nm/Em620nm). • MgATP=magnesium 5′-O—[hydroxy({[(hydroxyphosphinato)oxy]phosphinato}oxy)phosphoryl]adenosine • MgCl2=magnesium dichloride • EGTA=ethylene glycol bis(aminoethyl ether) N,N,N′,N′-tetraacetic acid • Tween 20=polysorbate 20 Medicament/pharmaceutical Composition

PI3K p110δ/p85α (human) = PI3K p110δ/p85α (human) (Homo sapiens (Human), UniProt O00329); assay: PI3K p110δ/p85α (human), non-radioactive assay (HTRF); assay type: biochemical; details: for IC50: read-out: IC50 (PI3Kdelta); for ratio IC50 (ATM) vs PI3Kdelta, selectivity with respect to PI3Kdelta: as printed:
Procedure: PI3K p110δ/p85α (Human), Non-radioactive Assay
as §1, with “p110δ/p85α” for “(p120γ)”, “HTRF=10000×(Em665nm/Em620nm).” for “HTRF=10000×(Em665nm/Em620nm). • MgATP=magnesium 5′-O—[hydroxy({[(hydroxyphosphinato)oxy]phosphinato}oxy)phosphoryl]adenosine • MgCl2=magnesium dichloride • EGTA=ethylene glycol bis(aminoethyl ether) N,N,N′,N′-tetraacetic acid • Tween 20=polysorbate 20 Medicament/pharmaceutical Composition”

[2] = target: purified human recombinant ATM (ataxia telangiectasia mutated), full length (Homo sapiens (Human), UniProt Q13315); assay: ATM kinase assay - determination of ATM inhibition (IC50 ATM), TR-FRET; assay type: biochemical
Method in brief: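 Full-length enzyme, expressed in a mammalian cell line, pre-incubated 15 min with inhibitor in 25 mM HEPES pH 8.0, 10 mM Mg(CH3COO)2, 1 mM MnCl2, 0,1% BSA, 0,01% Brij 35, 5 mM DTT. Full-length cmyc-p53 (Sf21-expressed) and ATP then added, 30-35 min at 22° C. EDTA stop; p53 S15 phosphorylation read by TR-FRET antibodies.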

PI3K p110β/p85α (human) = PI3K p110β/p85α (human) (Homo sapiens (Human), UniProt P42338); assay: PI3K p110β/p85α (human), non-radioactive assay (HTRF); assay type: biochemical; details: for IC50: read-out: IC50 (PI3Kbeta); for fold selectivity for ATM over PI3Kbeta (IC50 PI3Kbeta / IC50 ATM): IC50 (ATM) at least 2000 times higher compared with IC50 (PI3Kbeta)
Sequence of PI3K p110β/p85α (human) (P42338 whole entry): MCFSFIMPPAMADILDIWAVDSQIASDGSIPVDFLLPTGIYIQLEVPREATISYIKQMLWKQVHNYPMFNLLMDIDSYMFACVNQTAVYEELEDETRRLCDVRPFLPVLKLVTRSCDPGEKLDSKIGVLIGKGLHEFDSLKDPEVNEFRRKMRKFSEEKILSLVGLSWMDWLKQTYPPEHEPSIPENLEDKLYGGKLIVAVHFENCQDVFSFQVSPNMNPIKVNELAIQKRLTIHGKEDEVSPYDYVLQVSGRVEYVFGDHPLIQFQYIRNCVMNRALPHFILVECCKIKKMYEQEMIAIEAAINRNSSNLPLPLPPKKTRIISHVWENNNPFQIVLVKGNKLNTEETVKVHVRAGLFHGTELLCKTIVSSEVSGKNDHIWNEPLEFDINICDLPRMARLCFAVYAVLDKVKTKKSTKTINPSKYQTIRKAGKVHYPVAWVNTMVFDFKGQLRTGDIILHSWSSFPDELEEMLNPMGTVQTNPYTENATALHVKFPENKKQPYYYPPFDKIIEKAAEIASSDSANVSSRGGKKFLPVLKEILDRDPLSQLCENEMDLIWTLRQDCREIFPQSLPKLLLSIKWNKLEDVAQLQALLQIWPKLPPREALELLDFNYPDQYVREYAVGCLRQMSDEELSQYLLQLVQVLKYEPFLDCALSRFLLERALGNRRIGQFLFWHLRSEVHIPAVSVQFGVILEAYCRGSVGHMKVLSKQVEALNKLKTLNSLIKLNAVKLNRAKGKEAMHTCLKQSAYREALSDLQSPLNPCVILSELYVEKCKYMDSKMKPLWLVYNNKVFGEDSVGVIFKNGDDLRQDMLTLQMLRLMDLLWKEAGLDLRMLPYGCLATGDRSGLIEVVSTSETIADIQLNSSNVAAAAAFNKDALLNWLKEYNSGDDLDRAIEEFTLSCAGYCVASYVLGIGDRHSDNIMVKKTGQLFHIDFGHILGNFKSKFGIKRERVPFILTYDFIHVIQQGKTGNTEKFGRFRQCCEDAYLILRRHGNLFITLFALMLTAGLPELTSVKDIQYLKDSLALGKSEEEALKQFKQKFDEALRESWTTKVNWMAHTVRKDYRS
Sequence of PI3K p110β/p85α (human) (P27986 whole entry partner): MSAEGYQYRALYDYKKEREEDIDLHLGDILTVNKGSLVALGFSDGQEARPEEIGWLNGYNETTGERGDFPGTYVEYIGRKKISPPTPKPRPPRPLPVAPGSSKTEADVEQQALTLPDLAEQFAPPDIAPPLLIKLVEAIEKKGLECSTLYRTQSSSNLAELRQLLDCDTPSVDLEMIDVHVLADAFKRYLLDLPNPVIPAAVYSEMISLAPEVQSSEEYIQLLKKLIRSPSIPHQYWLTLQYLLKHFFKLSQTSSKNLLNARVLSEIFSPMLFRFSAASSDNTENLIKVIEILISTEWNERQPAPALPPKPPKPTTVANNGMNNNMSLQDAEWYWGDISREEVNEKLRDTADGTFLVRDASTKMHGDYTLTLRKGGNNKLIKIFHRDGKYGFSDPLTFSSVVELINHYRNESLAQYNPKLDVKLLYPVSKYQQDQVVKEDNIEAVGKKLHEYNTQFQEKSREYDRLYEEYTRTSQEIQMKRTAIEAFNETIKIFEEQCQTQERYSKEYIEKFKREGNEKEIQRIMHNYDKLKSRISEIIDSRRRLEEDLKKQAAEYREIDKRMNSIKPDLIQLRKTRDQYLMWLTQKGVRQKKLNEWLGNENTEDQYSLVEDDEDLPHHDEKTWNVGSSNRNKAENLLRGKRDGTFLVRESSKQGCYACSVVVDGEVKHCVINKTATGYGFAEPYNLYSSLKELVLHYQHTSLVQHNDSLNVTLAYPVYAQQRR
Procedure: PI3K p110β/p85α (Human), Non-radioactive Assay
as §1, with “p110β/p85α” for “(p120γ)”, “HTRF=10000×(Em665nm/Em620nm).” for “HTRF=10000×(Em665nm/Em620nm). • MgATP=magnesium 5′-O—[hydroxy({[(hydroxyphosphinato)oxy]phosphinato}oxy)phosphoryl]adenosine • MgCl2=magnesium dichloride • EGTA=ethylene glycol bis(aminoethyl ether) N,N,N′,N′-tetraacetic acid • Tween 20=polysorbate 20 Medicament/pharmaceutical Composition”

PI3K p110α/p85α (human) = PI3K p110α/p85α (human) (Homo sapiens (Human), UniProt P42336); assay: PI3K p110α/p85α (human), non-radioactive assay (HTRF); assay type: biochemical; details: for IC50: read-out: IC50 (PI3Kalpha); for ratio IC50 (ATM) vs PI3Kalpha, selectivity with respect to PI3Kalpha: as printed:
Procedure: PI3K p110α/p85α (Human), Non-radioactive Assay
PI3K p110α/p85α (human) was incubated in an assay buffer comprising 10 μM phosphati-dylinositol 4,5-bisphosphate and MgATP (concentration as necessary). The reaction was initiated by addition of MgATP solution. After incubation at room temperature for 40 minutes, the reaction was stopped by addition of a solution consisting of EDTA and biotinylated phosphatidylinositol 3,4,5-trisphosphate. Finally, the detection buffer, consisting of a europium-labelled anti-GST monoclonal antibody, a GST-labelled GRP1 PH domain and streptavidin allophycocyanin, was added. The plate was read out via homogeneous time-resolved fluorescence (HTRF) and the corresponding signals were evaluated via the formula HTRF=10000×(Em665nm/Em620nm).

Sequence of PI3K (p120γ) (human) (P48736 whole entry): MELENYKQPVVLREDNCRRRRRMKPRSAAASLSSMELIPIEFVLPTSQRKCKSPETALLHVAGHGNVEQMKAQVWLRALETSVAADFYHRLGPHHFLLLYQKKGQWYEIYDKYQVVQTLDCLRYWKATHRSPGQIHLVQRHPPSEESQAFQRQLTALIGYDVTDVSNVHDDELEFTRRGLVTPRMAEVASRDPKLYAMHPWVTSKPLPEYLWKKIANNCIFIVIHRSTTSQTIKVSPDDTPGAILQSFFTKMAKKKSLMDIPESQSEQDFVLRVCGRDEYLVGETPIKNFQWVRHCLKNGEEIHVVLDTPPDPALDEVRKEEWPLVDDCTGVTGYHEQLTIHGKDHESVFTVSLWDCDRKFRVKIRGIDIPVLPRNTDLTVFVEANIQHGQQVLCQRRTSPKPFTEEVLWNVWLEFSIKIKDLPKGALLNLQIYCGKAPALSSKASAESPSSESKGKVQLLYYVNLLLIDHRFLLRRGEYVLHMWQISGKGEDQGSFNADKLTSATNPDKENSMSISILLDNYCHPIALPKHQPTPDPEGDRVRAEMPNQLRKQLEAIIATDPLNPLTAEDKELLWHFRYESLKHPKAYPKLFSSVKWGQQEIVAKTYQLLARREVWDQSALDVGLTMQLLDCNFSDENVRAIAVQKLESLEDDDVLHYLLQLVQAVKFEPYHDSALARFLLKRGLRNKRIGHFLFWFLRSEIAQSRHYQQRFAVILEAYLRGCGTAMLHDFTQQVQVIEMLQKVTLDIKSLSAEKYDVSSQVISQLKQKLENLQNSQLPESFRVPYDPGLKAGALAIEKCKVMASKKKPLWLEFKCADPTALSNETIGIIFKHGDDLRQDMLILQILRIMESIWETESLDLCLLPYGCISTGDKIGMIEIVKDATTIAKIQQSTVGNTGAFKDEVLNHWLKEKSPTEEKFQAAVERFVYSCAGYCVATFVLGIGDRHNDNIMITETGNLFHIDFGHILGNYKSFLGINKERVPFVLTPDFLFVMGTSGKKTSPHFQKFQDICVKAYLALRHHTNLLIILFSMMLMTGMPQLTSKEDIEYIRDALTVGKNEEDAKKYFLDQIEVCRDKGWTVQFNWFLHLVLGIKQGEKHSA
Sequence of PI3K p110δ/p85α (human) (O00329 whole entry): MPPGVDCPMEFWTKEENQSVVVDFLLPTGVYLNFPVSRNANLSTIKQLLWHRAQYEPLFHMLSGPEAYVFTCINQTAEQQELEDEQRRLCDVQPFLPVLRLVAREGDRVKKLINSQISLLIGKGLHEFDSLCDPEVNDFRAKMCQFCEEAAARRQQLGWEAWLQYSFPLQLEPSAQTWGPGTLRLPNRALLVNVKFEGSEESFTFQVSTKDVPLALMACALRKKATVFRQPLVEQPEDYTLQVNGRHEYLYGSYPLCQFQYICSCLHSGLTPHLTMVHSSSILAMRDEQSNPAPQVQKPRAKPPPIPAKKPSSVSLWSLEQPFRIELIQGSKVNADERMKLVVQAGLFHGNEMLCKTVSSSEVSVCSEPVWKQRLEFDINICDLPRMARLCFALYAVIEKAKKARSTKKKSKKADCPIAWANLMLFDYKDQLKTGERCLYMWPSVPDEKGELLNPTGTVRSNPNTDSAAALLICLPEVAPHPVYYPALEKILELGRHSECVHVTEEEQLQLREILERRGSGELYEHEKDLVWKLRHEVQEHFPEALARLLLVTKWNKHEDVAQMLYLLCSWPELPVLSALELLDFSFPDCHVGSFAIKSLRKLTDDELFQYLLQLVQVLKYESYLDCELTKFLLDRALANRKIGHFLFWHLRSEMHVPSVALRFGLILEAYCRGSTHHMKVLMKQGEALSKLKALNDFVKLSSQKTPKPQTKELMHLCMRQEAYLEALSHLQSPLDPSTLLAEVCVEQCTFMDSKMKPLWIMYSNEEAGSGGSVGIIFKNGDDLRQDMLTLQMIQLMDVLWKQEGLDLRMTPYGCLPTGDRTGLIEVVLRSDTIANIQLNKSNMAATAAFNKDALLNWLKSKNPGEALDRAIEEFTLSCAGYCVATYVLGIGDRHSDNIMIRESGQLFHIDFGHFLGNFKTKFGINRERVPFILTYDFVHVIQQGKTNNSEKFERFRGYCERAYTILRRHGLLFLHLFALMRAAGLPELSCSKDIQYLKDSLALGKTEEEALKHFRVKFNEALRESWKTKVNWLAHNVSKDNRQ
Sequence of PI3K p110δ/p85α (human) (P27986 whole entry partner): as the sequence (P27986 whole entry partner) above
Sequence of PI3K p110α/p85α (human) (P42336 whole entry): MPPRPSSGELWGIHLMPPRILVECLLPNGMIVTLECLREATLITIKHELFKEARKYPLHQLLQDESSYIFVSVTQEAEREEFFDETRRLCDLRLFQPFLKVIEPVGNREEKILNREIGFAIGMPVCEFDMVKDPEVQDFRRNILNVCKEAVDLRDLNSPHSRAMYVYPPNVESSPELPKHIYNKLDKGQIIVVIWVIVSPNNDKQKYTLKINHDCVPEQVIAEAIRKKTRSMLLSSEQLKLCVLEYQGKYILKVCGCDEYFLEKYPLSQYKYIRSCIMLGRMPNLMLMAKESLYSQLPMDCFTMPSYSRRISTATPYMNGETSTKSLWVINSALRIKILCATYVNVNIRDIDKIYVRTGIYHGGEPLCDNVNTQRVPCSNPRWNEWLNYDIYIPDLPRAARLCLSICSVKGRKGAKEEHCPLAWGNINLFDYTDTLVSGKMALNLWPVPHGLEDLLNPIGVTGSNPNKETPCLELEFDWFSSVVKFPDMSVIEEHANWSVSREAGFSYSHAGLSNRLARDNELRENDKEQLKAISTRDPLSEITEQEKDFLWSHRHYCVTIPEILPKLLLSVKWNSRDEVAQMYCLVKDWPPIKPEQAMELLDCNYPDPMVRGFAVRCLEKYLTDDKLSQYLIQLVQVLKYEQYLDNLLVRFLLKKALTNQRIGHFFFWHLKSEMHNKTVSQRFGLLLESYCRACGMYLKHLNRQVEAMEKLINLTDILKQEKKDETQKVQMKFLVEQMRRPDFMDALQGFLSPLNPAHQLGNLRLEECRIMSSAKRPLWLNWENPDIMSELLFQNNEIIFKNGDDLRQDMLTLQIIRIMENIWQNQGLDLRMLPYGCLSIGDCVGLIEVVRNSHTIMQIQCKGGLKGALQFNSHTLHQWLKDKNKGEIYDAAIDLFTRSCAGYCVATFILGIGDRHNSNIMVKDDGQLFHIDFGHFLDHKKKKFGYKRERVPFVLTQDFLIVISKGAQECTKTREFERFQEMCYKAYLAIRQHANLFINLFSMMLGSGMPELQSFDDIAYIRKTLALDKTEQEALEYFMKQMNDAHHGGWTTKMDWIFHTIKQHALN
Sequence of PI3K p110α/p85α (human) (P27986 whole entry partner): as the sequence (P27986 whole entry partner) above

Row | SMILES | IC50 (mTOR (human)) [nM] | IC50 [1] [nM] | IC50 (PI3K (p120γ) (human)) [nM] | IC50 (PI3K p110δ/p85α (human)) [nM] | IC50 [2] [nM] | IC50 ([2]; 10 μM ATP, substrate p53) [nM] | IC50 (PI3K p110β/p85α (human)) [nM] | IC50 (PI3K p110α/p85α (human)) [nM] | ratio IC50 (ATM) vs PI3Kgamma, selectivity with respect to PI3Kgamma (PI3K (p120γ) (human)) | ratio IC50 (ATM) vs PI3Kdelta, selectivity with respect to PI3Kdelta (PI3K p110δ/p85α (human)) | fold selectivity for ATM over PI3Kbeta (IC50 PI3Kbeta / IC50 ATM) (PI3K p110β/p85α (human)) | ratio IC50 (ATM) vs PI3Kalpha, selectivity with respect to PI3Kalpha (PI3K p110α/p85α (human)) | ratio IC50 (ATM) : IC50 (mTOR), selectivity with respect to mTOR (mTOR (human))
1 | COc1cc2ncc3c(c2cc1-c1cnn(C)c1)n(-c1ncc(F)cc1F)c(=O)n3C [Compound Example 1, 1-(3,5-Difluoropyridin-2-yl)-7-methoxy-3-methyl-8-(l-methyl-1H-pyrazol-4-yl)-1,3-dihydroimidazo[4,5-c] quinolin-2-one] | > 30000 | < 200 | > 30000 | > 30000 | < 10 | < 10 | > 30000 | > 30000 | – | – | – | – | –
2 | COc1cc2ncc3c(c2cc1-c1cn[nH]c1)n(-c1c(F)cncc1F)c(=O)n3C [Compound Example 2, 1-(3,5-Difluoropyridin-4-yl)-7-methoxy-3-methyl-8-(1H-pyrazol-4-yl)-1,3-dihydro-imidazo[4,5-c]quinolin-2-one] | > 5000 | < 200 | > 30000 | > 30000 | < 1 | < 1 | > 30000 | > 30000 | – | – | – | – | –
3 | COc1cc2ncc3c(c2cc1-c1cn(C)nc1C)n(-c1c(F)cncc1OC)c(=O)n3C [Compound Example 4, 8-(1,3-Dimethyl-1H-pyrazol-4-yl)-1-(3-fluoro-5-methoxy-pyridin-4-yl)-7-methoxy-3-methyl-1,3-dihydroimidazo-[4,5-c]quinolin-2-one] | > 30000 | < 200 | > 30000 | > 10000 | – | – | > 30000 | > 5000 | – | – | – | – | –
4 | COc1cc2ncc3[nH]c(=O)n(-c4ncc(F)cc4F)c3c2cc1-c1cn(C)nc1C [compound 108, 1-(3,5-Difluoropyridin-2-yl)-8-(1,3-dimethyl-1H-pyrazol-4-yl)-7-methoxy-1,3-dihydroimidazo[4,5-c]-quinolin-2-one] | – | 200 to 1000 | – | – | – | < 1 | – | – | at least 2000 times | at least 2000 times | at least 2000 times | at least 2000 times | –
5 | COc1cc2ncc3c(c2cc1-c1cnn(C)c1)n(-c1c(C)n[nH]c1C)c(=O)n3C [compound 118, 1-(3,5-Dimethyl-1H-pyrazol-4-yl)-7-methoxy-3-methyl-8-(1-methyl-1H-pyrazol-4-yl)-1,3-dihydroimidazo[4,5-c]-quinolin-2-one] | – | 200 to 1000 | – | – | – | < 10 | – | – | – | – | at least 2000 times | – | at least 2000 times
6 | CCc1cncc(F)c1-n1c(=O)n(C)c2cnc3cc(OC)c(-c4cn[nH]n4)cc3c21 [compound 125, 1-(3-Ethyl-5-fluoropyridin-4-yl)-7-methoxy-3-methyl-8-(2H-1,2,3-triazol-4-yl)-1,3-dihydroimidazo[4,5-c] quinolin-2-one] | – | 200 to 1000 | – | – | – | < 1 | – | – | at least 2000 times | at least 2000 times | at least 2000 times | at least 2000 times | –
7 | COc1cc2ncc3c(c2cc1-c1ccc2nc(C)[nH]c2c1)n(-c1c(F)cncc1OC)c(=O)n3C [compound 136, 1-(3-Fluoro-5-methoxy-pyridin-4-yl)-7-methoxy-3-methyl-8-(2-methyl-3H-benzoimidazol-5-yl)-1,3-dihydroimidazo[4,5-c]-quinolin-2-one] | – | < 200 | – | – | – | < 1 | – | – | at least 2000 times | – | at least 2000 times | – | –
8 | [2H]C([2H])([2H])Oc1cncc(F)c1-n1c(=O)n(C)c2cnc3cc(OC)c(-c4cnn(C)c4)cc3c21 [compound 145, 1-[3-Fluoro-5-(trideuterio-methoxy)-4-pyridyl]-7-methoxy-3-methyl-8-(1-methylpyrazol-4-yl)imidazo-[4,5-c]quinolin-2-one] | – | 200 to 1000 | – | – | – | < 1 | – | – | at least 2000 times | at least 2000 times | at least 2000 times | – | at least 2000 times
9 | COc1ccc(-c2cc3c(cc2OC)ncc2c3n(-c3cn(C)nc3F)c(=O)n2C)cn1 [compound 159, 1-(3-Fluoro-1-methyl-1H-pyrazol-4-yl)-7-methoxy-8-(6-methoxypyridin-3-yl)-3-methyl-1,3-dihydroimidazo-[4,5-c]quinolin-2-one] | – | 1000 to 2000 | – | – | – | < 10 | – | – | – | – | at least 2000 times | – | –
10 | COc1cc2ncc3c(c2cc1-c1cnn(C)c1)n(-c1ncc(OCS(C)(=O)=O)cc1F)c(=O)n3C [compound 201, 1-(3-Fluoro-5-methyl-sulfonylmethoxypyridin-2-yl)-7-methoxy-3-methyl-8-(1-methyl-1H-pyrazol-4-yl)-1,3-dihydroimidazo[4,5-c]-quinolin-2-one] | – | < 200 | – | – | – | < 1 | – | – | at least 2000 times | at least 2000 times | at least 2000 times | at least 2000 times | –
